{"source": "patent US7563592B2", "about": "“Alizarin-based chromogenic substrates, their uses and composition containing same” (Biomerieux, S.A., priority 1999, dated 2009)", "key": {"Klebsiella oxytoca": {"tested_on": "Klebsiella oxytoca", "assay": "β-galactosidase detection on semi-solid medium, clinical and environmental strains (Example 2)", "format": "cell-based", "settings": "50 mg/l + iron citrate 500 mg/l; 18 hours; 13 strains tested"}, "Acinetobacter spp.": {"tested_on": "Acinetobacter spp.", "assay": "β-galactosidase detection on semi-solid medium, clinical and environmental strains (Example 2)", "format": "cell-based", "settings": "50 mg/l + iron citrate 500 mg/l; 18 hours; 53 strains tested"}, "[1]": {"tested_on": "Providencia alcalifaciens", "assay": "β-galactosidase detection on semi-solid medium, clinical and environmental strains (Example 2)", "format": "cell-based", "settings": "50 mg/l + iron citrate 500 mg/l; 18 hours; 3 strains tested"}, "Escherichia hermannii": {"tested_on": "Escherichia hermannii", "assay": "β-galactosidase detection on semi-solid medium, clinical and environmental strains (Example 2)", "format": "cell-based", "settings": "50 mg/l + iron citrate 500 mg/l; 18 hours; 1 strain tested"}, "Vibrio cholerae": {"tested_on": "Vibrio cholerae", "format": "cell-based", "settings": "50 mg/l + iron citrate 500 mg/l; 18 hours; 1 strain tested"}, "Yersinia enterocolitica": {"tested_on": "Yersinia enterocolitica", "assay": "β-galactosidase detection on semi-solid medium, clinical and environmental strains (Example 2)", "format": "cell-based", "settings": "50 mg/l + iron citrate 500 mg/l; 18 hours; 14 strains tested"}, "Klebsiella pneumoniae": {"tested_on": "Klebsiella pneumoniae", "assay": "β-galactosidase detection on semi-solid medium, clinical and environmental strains (Example 2)", "format": "cell-based", "settings": "50 mg/l + iron citrate 500 mg/l; 18 hours; 19 strains tested"}, "Escherichia coli": {"tested_on": "Escherichia coli", "assay": "β-galactosidase detection on semi-solid medium, clinical and environmental strains (Example 2)", "format": "cell-based", "settings": "50 mg/l + iron citrate 500 mg/l; 18 hours; 41 strains tested"}, "Enterobacter agglomerans": {"tested_on": "Enterobacter agglomerans", "assay": "β-galactosidase detection on semi-solid medium, clinical and environmental strains (Example 2)", "format": "cell-based", "settings": "50 mg/l + iron citrate 500 mg/l; 18 hours; 1 strain tested"}, "Shigella boydii": {"tested_on": "Shigella boydii", "assay": "β-galactosidase detection on semi-solid medium, clinical and environmental strains (Example 2)", "format": "cell-based", "settings": "50 mg/l + iron citrate 500 mg/l; 18 hours; 1 strain tested"}, "[2]": {"tested_on": "β-galactosidase (EC 3.2.1.23 Sigma)", "assay": "Effect of pH on β-D-galactosidase detection, substrate 0.05 g/l in water (Example 4)", "format": "biochemical", "experimental": "To each of eighteen tubes containing 5 ml of osmotically purified water, the following were added Alizarin-2-β-D-galactoside (0.05 g/l) and 5 μl of β-galactosidase (EC 3.2.1.23 Sigma). Ammoniacal iron citrate (0.05 g/l) was added to half of these tubes. […] Finally, the pH of these tubes was adjusted to different values (2-3-4-5-6-7-8-9-10) at 24° C."}, "Escherichia coli 115": {"tested_on": "Escherichia coli 115", "assay": "β-galactosidase detection in semi-solid Columbia medium (Example 1)", "format": "cell-based"}, "Listeria seeligeri 080": {"tested_on": "Listeria seeligeri 080", "assay": "β-glucosidase detection in API strip wells (Example 6)", "settings": "0.12 g/l + iron citrate 0.05 g/l"}, "[3]": {"tested_on": "Listeria monocytogenes 081", "assay": "Effect of metal salts on the color of the marker part, substrate 50 mg/l in Columbia medium (Example 3)", "format": "cell-based", "experimental": "To the Columbia-base medium (46.37 g/l) supplemented with Alizarin-2-β-D-glucoside (50 mg/l), were added either Manganese chloride, Ammoniacal iron citrate, Tin chloride, or Aluminum sulfate, all at a concentration of 50 mg/l. A control medium with no metal salts was tested in parallel. After autoclaving, these various media were all used to prepare Petri dishes (20 ml per plate). […] It should be pointed out that intensity readings are in arbitrary units. The only purpose of giving these values is to make it possible to compare one strain with another in this respect. The same is true for the examples which follow. Similarly, the strains tested were taken from the Applicant's collection and the number given represents an internal reference specific to this collection. The same internal numbering system is also used in some of the examples given later on."}, "[4]": {"settings": "Manganese chloride 50 mg/l, 24 H"}, "[5]": {"settings": "Manganese chloride 50 mg/l, 48 H"}}, "data": [{"smiles": "O=C1c2ccccc2C(=O)c2c1ccc(O[C@@H]1O[C@H](CO)[C@H](O)[C@H](O)[C@H]1O)c2O", "note": "[Alizarin-2-β-D-galactoside]", "values": [{"measurement": "percentage of positive strains", "setting": "Klebsiella oxytoca", "result": 100, "unit": "%"}, {"measurement": "percentage of positive strains", "setting": "Acinetobacter spp.", "result": 0, "unit": "%"}, {"measurement": "percentage of positive strains", "setting": "[1]", "result": 0, "unit": "%"}, {"measurement": "percentage of positive strains", "setting": "Escherichia hermannii", "result": 100, "unit": "%"}, {"measurement": "percentage of positive strains", "setting": "Vibrio cholerae", "result": 100, "unit": "%"}, {"measurement": "percentage of positive strains", "setting": "Yersinia enterocolitica", "result": 64, "unit": "%"}, {"measurement": "percentage of positive strains", "setting": "Klebsiella pneumoniae", "result": 100, "unit": "%"}, {"measurement": "percentage of positive strains", "setting": "Escherichia coli", "result": 95, "unit": "%"}, {"measurement": "percentage of positive strains", "setting": "Enterobacter agglomerans", "result": 100, "unit": "%"}, {"measurement": "percentage of positive strains", "setting": "Shigella boydii", "result": 0, "unit": "%"}, {"measurement": "color of the tubes after incubation, before pH adjustment", "setting": "[2]; 4 hours at 37° C., no Ammoniacal iron citrate", "result": "light pink"}, {"measurement": "pink coloration of the tubes after incubation, before pH adjustment", "setting": "[2]; 4 hours at 37° C., with Ammoniacal iron citrate 0.05 g/l, versus tubes without", "result": "more intense"}, {"measurement": "Color", "setting": "[2]; pH 2, no iron", "result": "Yellow"}, {"measurement": "Color", "setting": "[2]; pH 2, with iron (Ammoniacal iron citrate 0.05 g/l)", "result": "Yellow"}, {"measurement": "Color", "setting": "[2]; pH 3, no iron", "result": "Yellow"}, {"measurement": "Color", "setting": "[2]; pH 3, with iron (Ammoniacal iron citrate 0.05 g/l)", "result": "Yellow"}, {"measurement": "Color", "setting": "[2]; pH 4, no iron", "result": "Yellow"}, {"measurement": "Color", "setting": "[2]; pH 4, with iron (Ammoniacal iron citrate 0.05 g/l)", "result": "Yellow"}, {"measurement": "Color", "setting": "[2]; pH 5, no iron", "result": "Yellow-Orange"}, {"measurement": "Color", "setting": "[2]; pH 5, with iron (Ammoniacal iron citrate 0.05 g/l)", "result": "Yellow-Pink"}, {"measurement": "Color", "setting": "[2]; pH 6, no iron", "result": "Pink-Orange"}, {"measurement": "Color", "setting": "[2]; pH 6, with iron (Ammoniacal iron citrate 0.05 g/l)", "result": "Pink"}, {"measurement": "Color", "setting": "[2]; pH 7, no iron", "result": "Pink-Orange"}, {"measurement": "Color", "setting": "[2]; pH 7, with iron (Ammoniacal iron citrate 0.05 g/l)", "result": "Pink"}, {"measurement": "Color", "setting": "[2]; pH 8, no iron", "result": "Pink"}, {"measurement": "Color", "setting": "[2]; pH 8, with iron (Ammoniacal iron citrate 0.05 g/l)", "result": "Purple"}, {"measurement": "Color", "setting": "[2]; pH 9, no iron", "result": "Purple"}, {"measurement": "Color", "setting": "[2]; pH 9, with iron (Ammoniacal iron citrate 0.05 g/l)", "result": "Purple"}, {"measurement": "Color", "setting": "[2]; pH 10, no iron", "result": "Mauve"}, {"measurement": "Color", "setting": "[2]; pH 10, with iron (Ammoniacal iron citrate 0.05 g/l)", "result": "Mauve"}, {"measurement": "Color", "setting": "Escherichia coli 115; 0.01 g/l + iron citrate, 18 H", "result": "purple"}, {"measurement": "Intensity", "setting": "Escherichia coli 115; 0.01 g/l + iron citrate, 18 H", "result": 0.3}, {"measurement": "Color", "setting": "Escherichia coli 115; 0.01 g/l + iron citrate, 24 H", "result": "purple"}, {"measurement": "Intensity", "setting": "Escherichia coli 115; 0.01 g/l + iron citrate, 24 H", "result": 0.3}, {"measurement": "Color", "setting": "Escherichia coli 115; 0.01 g/l + iron citrate, 48 H", "result": "purple"}, {"measurement": "Intensity", "setting": "Escherichia coli 115; 0.01 g/l + iron citrate, 48 H", "result": 0.5}, {"measurement": "Color", "setting": "Escherichia coli 115; 0.03 g/l + iron citrate, 18 H", "result": "purple"}, {"measurement": "Intensity", "setting": "Escherichia coli 115; 0.03 g/l + iron citrate, 18 H", "result": 2.7}, {"measurement": "Color", "setting": "Escherichia coli 115; 0.03 g/l + iron citrate, 24 H", "result": "purple"}, {"measurement": "Intensity", "setting": "Escherichia coli 115; 0.03 g/l + iron citrate, 24 H", "result": 2.7}, {"measurement": "Color", "setting": "Escherichia coli 115; 0.03 g/l + iron citrate, 48 H", "result": "purple"}, {"measurement": "Intensity", "setting": "Escherichia coli 115; 0.03 g/l + iron citrate, 48 H", "result": 3}, {"measurement": "Color", "setting": "Escherichia coli 115; 0.05 g/l + iron citrate, 18 H", "result": "purple"}, {"measurement": "Intensity", "setting": "Escherichia coli 115; 0.05 g/l + iron citrate, 18 H", "result": 3.5}, {"measurement": "Color", "setting": "Escherichia coli 115; 0.05 g/l + iron citrate, 24 H", "result": "purple"}, {"measurement": "Intensity", "setting": "Escherichia coli 115; 0.05 g/l + iron citrate, 24 H", "result": 3.5}, {"measurement": "Color", "setting": "Escherichia coli 115; 0.05 g/l + iron citrate, 48 H", "result": "purple"}, {"measurement": "Intensity", "setting": "Escherichia coli 115; 0.05 g/l + iron citrate, 48 H", "result": 3.5}, {"measurement": "Color", "setting": "Escherichia coli 115; 0.08 g/l + iron citrate, 18 H", "result": "purple"}, {"measurement": "Intensity", "setting": "Escherichia coli 115; 0.08 g/l + iron citrate, 18 H", "result": 4}, {"measurement": "Color", "setting": "Escherichia coli 115; 0.08 g/l + iron citrate, 24 H", "result": "purple"}, {"measurement": "Intensity", "setting": "Escherichia coli 115; 0.08 g/l + iron citrate, 24 H", "result": 4}, {"measurement": "Color", "setting": "Escherichia coli 115; 0.08 g/l + iron citrate, 48 H", "result": "purple"}, {"measurement": "Intensity", "setting": "Escherichia coli 115; 0.08 g/l + iron citrate, 48 H", "result": 4}]}, {"smiles": "O=C1c2ccccc2C(=O)c2c1ccc(O[C@@H]1O[C@H](CO)[C@@H](O)[C@H](O)[C@H]1O)c2O", "note": "[Alizarin-2-β-D-glucoside]", "values": [{"measurement": "Color observed", "setting": "Listeria seeligeri 080; 4 H", "result": "Purple"}, {"measurement": "Color observed", "setting": "Listeria seeligeri 080; 24 H", "result": "Purple"}, {"measurement": "Color", "setting": "[3]; Aluminum sulfate 50 mg/l, 24 H", "result": "red"}, {"measurement": "Intensity", "setting": "[3]; Aluminum sulfate 50 mg/l, 24 H", "result": 4, "unit": "arbitrary units"}, {"measurement": "Color", "setting": "[3]; Aluminum sulfate 50 mg/l, 48 H", "result": "red"}, {"measurement": "Intensity", "setting": "[3]; Aluminum sulfate 50 mg/l, 48 H", "result": 4, "unit": "arbitrary units"}, {"measurement": "Color", "setting": "[3]; Control, no metal salt, 24 H", "result": "purple"}, {"measurement": "Intensity", "setting": "[3]; Control, no metal salt, 24 H", "result": 2.3, "unit": "arbitrary units"}, {"measurement": "Color", "setting": "[3]; Control, no metal salt, 48 H", "result": "purple"}, {"measurement": "Intensity", "setting": "[3]; Control, no metal salt, 48 H", "result": 2.3, "unit": "arbitrary units"}, {"measurement": "Color", "setting": "[3]; Iron citrate 50 mg/l, 24 H", "result": "purple"}, {"measurement": "Intensity", "setting": "[3]; Iron citrate 50 mg/l, 24 H", "result": 4, "unit": "arbitrary units"}, {"measurement": "Color", "setting": "[3]; Iron citrate 50 mg/l, 48 H", "result": "purple"}, {"measurement": "Intensity", "setting": "[3]; Iron citrate 50 mg/l, 48 H", "result": 4, "unit": "arbitrary units"}, {"measurement": "Color", "setting": "[3]; [4]", "result": "purple"}, {"measurement": "Intensity", "setting": "[3]; [4]", "result": 2.3, "unit": "arbitrary units"}, {"measurement": "Color", "setting": "[3]; [5]", "result": "purple"}, {"measurement": "Intensity", "setting": "[3]; [5]", "result": 2.7, "unit": "arbitrary units"}, {"measurement": "Color", "setting": "[3]; Tin chloride 50 mg/l, 24 H", "result": "orange"}, {"measurement": "Intensity", "setting": "[3]; Tin chloride 50 mg/l, 24 H", "result": 3, "unit": "arbitrary units"}, {"measurement": "Color", "setting": "[3]; Tin chloride 50 mg/l, 48 H", "result": "orange"}, {"measurement": "Intensity", "setting": "[3]; Tin chloride 50 mg/l, 48 H", "result": 4, "unit": "arbitrary units"}]}]}
